Key:
Format in all cases: cell-based
NFκB = NFκB agonist assay in A549 SPAP cells; details: Homo sapiens; for Emax: A549, A549 SPAP cells, >85% = full agonist, ≧20% = partial or full agonist, read-out: average maximum asymptote in the NFkB assay; for IC50: A549 SPAP cells, TNFα 3.2 ng/ml, read-out: pIC50 for the NFkB assay (converted);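 for average maximum asymptote in the NFkB assay: maximum inhibition of the TNFα-induced NFκB-driven signal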
How it was run: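 A549 cells stably carrying an ELAM/NFκB-driven SPAP reporter were pre-incubated 1 h at 37° C with compound, then stimulated with TNFα (3.2 ng/ml final) for 15 h. SPAP activity read colorimetrically with pNPP at 405 nm after ~1 h; pIC50 estimated from dose-response curves.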

MMTV promoter = assay: MMTV agonist assay in A549 MMTV cells; details: Homo sapiens, A549, 6 h, >85% = full agonist, >20% and <85% = partial or efficacy selective agonist, read-out: average maximum asymptote in the MMTV agonist assay
How it was run: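 A549 cells stably carrying an MMTV promoter-driven renilla luciferase reporter were exposed to compound for 6 h at 37 °C in DMEM with 10% FCS and 25 mM HEPES. Luminescence read after renilla substrate addition; pEC50 and maximum asymptote estimated from dose-response curves.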

progesterone receptor = molecular target: T1, progesterone receptor (Homo sapiens, UniProt P06401); assay: Assay for progesterone receptor activity (CV-1 cells, PRb-BacMam/MMTV-BacMam); details: CV-1 cells transduced with PRb-BacMam and MMTV-BacMam; read-out: pEC50 progesterone receptor activity (converted)
T1 construct: expressed in transfected cells; host or cells: CV-1 cells transduced with PRb-BacMam and MMTV-BacMam
T1 sequence (P06401 1-933): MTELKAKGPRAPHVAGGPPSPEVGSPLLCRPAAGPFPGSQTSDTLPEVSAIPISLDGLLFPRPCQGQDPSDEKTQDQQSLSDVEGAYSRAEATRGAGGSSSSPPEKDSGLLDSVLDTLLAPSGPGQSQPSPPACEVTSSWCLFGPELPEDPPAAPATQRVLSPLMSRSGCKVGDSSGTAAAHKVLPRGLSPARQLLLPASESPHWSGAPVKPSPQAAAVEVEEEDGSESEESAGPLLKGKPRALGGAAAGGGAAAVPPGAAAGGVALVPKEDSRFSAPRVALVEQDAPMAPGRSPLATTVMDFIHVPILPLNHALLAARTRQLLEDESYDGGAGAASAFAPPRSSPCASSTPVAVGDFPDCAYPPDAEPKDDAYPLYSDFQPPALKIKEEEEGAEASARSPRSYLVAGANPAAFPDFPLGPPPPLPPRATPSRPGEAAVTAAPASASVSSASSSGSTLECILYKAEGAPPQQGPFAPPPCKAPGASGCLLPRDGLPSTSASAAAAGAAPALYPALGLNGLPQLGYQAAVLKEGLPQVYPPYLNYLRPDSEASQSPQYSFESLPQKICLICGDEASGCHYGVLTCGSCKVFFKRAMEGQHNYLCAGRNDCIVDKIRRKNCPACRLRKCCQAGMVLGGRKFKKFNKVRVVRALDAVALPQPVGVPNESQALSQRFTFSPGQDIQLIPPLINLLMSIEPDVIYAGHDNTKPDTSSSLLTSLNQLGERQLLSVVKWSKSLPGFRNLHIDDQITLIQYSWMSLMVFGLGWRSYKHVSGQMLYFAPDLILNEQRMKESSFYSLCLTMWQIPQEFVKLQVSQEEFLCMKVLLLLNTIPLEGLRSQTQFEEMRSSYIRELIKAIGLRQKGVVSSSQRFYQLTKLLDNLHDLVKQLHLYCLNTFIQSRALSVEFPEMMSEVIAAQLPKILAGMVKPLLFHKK
How it was run: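 CV-1 cells co-transduced with PRb-BacMam and MMTV-BacMam (10% each), seeded onto compounds in DMEM with 10% serum. After 24 h, luminescence was read with Steadylite. pEC50 values were estimated from dose-response curves.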

SMILES	Emax (NFκB)	IC50 (NFκB)	Emax (MMTV promoter)	EC50 (progesterone receptor)
CCN(CC(O)(CNC(=O)c1cnn(-c2cc(F)cc(F)c2)c1N)C(F)(F)F)C(=O)c1c(F)cccc1F (racemic) [Example 35 (racemic), 5-amino-1-(3,5-difluorophenyl)-N-(2-{[[(2,6-difluorophenyl)carbonyl](ethyl)amino]methyl}-3,3,3-trifluoro-2-hydroxypropyl)-1H-pyrazole-4-carboxamide]	> 85%	< 1000 nM	> 85%	> 1000 nM
CCN(CC(O)(CNC(=O)c1cnn(-c2cc(F)ccc2F)c1N)C(F)(F)F)C(=O)c1c(F)cccc1F (racemic) [Example 36 (racemic), 5-amino-1-(2,5-difluorophenyl)-N-(2-{[[(2,6-difluorophenyl)carbonyl](ethyl)amino]methyl}-3,3,3-trifluoro-2-hydroxypropyl)-1H-pyrazole-4-carboxamide]	> 85%	< 1000 nM	> 85%	> 1000 nM
CCN(CC(O)(CNC(=O)c1cnn(-c2c(F)cccc2F)c1N)C(F)(F)F)C(=O)c1c(F)cccc1F (racemic) [Example 37 (racemic), 5-amino-1-(2,6-difluorophenyl)-N-(2-{[[(2,6-difluorophenyl)carbonyl](ethyl)amino]methyl}-3,3,3-trifluoro-2-hydroxypropyl)-1H-pyrazole-4-carboxamide]	> 85%	< 1000 nM	> 85%	> 1000 nM
CCN(CC(O)(CNC(=O)c1cnn(-c2cccc(F)c2)c1N)C(F)(F)F)C(=O)c1c(F)cccc1F (racemic) [Example 38 (racemic), 5-amino-N-(2-{[[(2,6-difluorophenyl)carbonyl](ethyl)amino]methyl}-3,3,3-trifluoro-2-hydroxypropyl)-1-(3-fluorophenyl)-1H-pyrazole-4-carboxamide]	> 85%	< 1000 nM	> 85%	> 1000 nM
CCN(CC(O)(CNC(=O)c1cnn(-c2ccc(Cl)cc2)c1N)C(F)(F)F)C(=O)c1c(F)cccc1F (racemic) [Example 39 (racemic), 5-amino-1-(4-chlorophenyl)-N-(2-{[[(2,6-difluorophenyl)carbonyl](ethyl)amino]methyl}-3,3,3-trifluoro-2-hydroxypropyl)-1H-pyrazole-4-carboxamide]	> 85%	< 1000 nM	> 85%	> 1000 nM
CCN(CC(O)(CNC(=O)c1cnn(-c2cccc(Cl)c2)c1N)C(F)(F)F)C(=O)c1c(F)cccc1F (racemic) [Example 41 (racemic), 5-amino-1-(3-chlorophenyl)-N-(2-{[[(2,6-difluorophenyl)carbonyl](ethyl)amino]methyl}-3,3,3-trifluoro-2-hydroxypropyl)-1H-pyrazole-4-carboxamide]	> 85%	< 1000 nM	> 85%	> 1000 nM
CCN(CC(O)(CNC(=O)c1cnn(-c2ccccc2F)c1N)C(F)(F)F)C(=O)c1c(F)cccc1F (racemic) [Example 42 (racemic), 5-amino-N-(2-{[[(2,6-difluorophenyl)carbonyl](ethyl)amino]methyl}-3,3,3-trifluoro-2-hydroxypropyl)-1-(2-fluorophenyl)-1H-pyrazole-4-carboxamide]	> 85%	< 1000 nM	> 85%	> 1000 nM
Nc1c(C(=O)NCC(O)(CNC(=O)c2c(C(F)F)cccc2C(F)F)C(F)(F)F)cnn1-c1ccc(F)cc1 (racemic) [Example 43 (racemic), 5-Amino-N-{2-[({[2,6-bis(difluoromethyl)phenyl]carbonyl}amino)methyl]-3,3,3-trifluoro-2-hydroxypropyl}-1-(4-fluorophenyl)-1H-pyrazole-4-carboxamide]	≥ 20%	< 1000 nM	20 to 85%	> 1000 nM
Nc1c(C(=O)NCC(O)(CNC(=O)c2c(Br)cccc2C(F)(F)F)C(F)(F)F)cnn1-c1ccc(F)cc1 (racemic) [Example 45 (racemic), 5-Amino-N-{2-[({[2-bromo-6-(trifluoromethyl)phenyl]carbonyl}amino)methyl]-3,3,3-trifluoro-2-hydroxypropyl}-1-(4-fluorophenyl)-1H-pyrazole-4-carboxamide]	≥ 20%	< 1000 nM	20 to 85%	> 1000 nM
Nc1c(C(=O)NCC(O)(CNC(=O)c2c(Cl)cccc2Cl)C(F)(F)F)cnn1-c1ccc(F)cc1 (single isomer, unassigned) [Example 3 Enantiomer 1, 5-Amino-N-[2-({[(2,6-dichlorophenyl)carbonyl]amino}methyl)-3,3,3-trifluoro-2-hydroxypropyl]-1-(4-fluorophenyl)-1H-pyrazole-4-carboxamide]	≥ 20%	< 1000 nM	20 to 85%	> 1000 nM
CCN(CC(O)(CNC(=O)c1cnn(-c2ccc(F)cc2)c1N)C(F)(F)F)C(=O)c1ccccc1S(C)(=O)=O (single isomer, unassigned) [Example 10 Enantiomer 1, 5-Amino-N-{2-[(ethyl{[2-(methylsulfonyl)phenyl]carbonyl}amino)methyl]-3,3,3-trifluoro-2-hydroxypropyl}-1-(4-fluorophenyl)-1H-pyrazole-4-carboxamide]	> 85%	< 1000 nM	> 85%	> 1000 nM
Nc1c(C(=O)NCC(O)(CNC(=O)c2c(Br)cccc2Br)C(F)(F)F)cnn1-c1ccc(F)cc1 (single isomer, unassigned) [Example 11 Enantiomer 1, 5-Amino-N-[2-({[(2,6-dibromophenyl)carbonyl]amino}methyl)-3,3,3-trifluoro-2-hydroxypropyl]-1-(4-fluorophenyl)-1H-pyrazole-4-carboxamide]	≥ 20%	< 1000 nM	20 to 85%	> 1000 nM
Nc1c(C(=O)NCC(O)(CNC(=O)c2c(Cl)cccc2Br)C(F)(F)F)cnn1-c1ccc(F)cc1 (single isomer, unassigned) [Example 12 Enantiomer 1, 5-Amino-N-[2-({[(2-bromo-6-chlorophenyl)carbonyl]amino}methyl)-3,3,3-trifluoro-2-hydroxypropyl]-1-(4-fluorophenyl)-1H-pyrazole-4-carboxamide]	≥ 20%	< 1000 nM	20 to 85%	> 1000 nM
Nc1c(C(=O)NCC(O)(CNC(=O)c2c(F)cccc2Br)C(F)(F)F)cnn1-c1ccc(F)cc1 (single isomer, unassigned) [Example 13 Enantiomer 1, 5-Amino-N-[2-({[(2-bromo-6-fluorophenyl)carbonyl]amino}methyl)-3,3,3-trifluoro-2-hydroxypropyl]-1-(4-fluorophenyl)-1H-pyrazole-4-carboxamide]	≥ 20%	< 1000 nM	20 to 85%	> 1000 nM
Nc1c(C(=O)NCC(O)(CNC(=O)c2c(Cl)cccc2OC(F)F)C(F)(F)F)cnn1-c1ccc(F)cc1 (single isomer, unassigned) [Example 14 Enantiomer 1, 5-Amino-N-(2-{[({2-chloro-6-[(difluoromethyl)oxy]phenyl}carbonyl)amino]methyl}-3,3,3-trifluoro-2-hydroxypropyl)-1-(4-fluorophenyl)-1H-pyrazole-4-carboxamide]	≥ 20%	< 1000 nM	20 to 85%	> 1000 nM
Nc1c(C(=O)NCC(O)(CNC(=O)c2c(C(F)F)cccc2C(F)F)C(F)(F)F)cnn1-c1ccc(F)cc1 (single isomer, unassigned) [Example 43 Enantiomer 1, 5-Amino-N-{2-[({[2,6-bis(difluoromethyl)phenyl]carbonyl}amino)methyl]-3,3,3-trifluoro-2-hydroxypropyl}-1-(4-fluorophenyl)-1H-pyrazole-4-carboxamide]	≥ 20%	< 1000 nM	20 to 85%	> 1000 nM

Reference: patent US8247377B2, “Non-steroidal glucocorticoid inhibitors and their use in treating inflammation, allergy and auto-immune conditions” (Glaxo Group Limited, priority 2006, dated 2012)
